Tests used:
[1] = test system: Aβ42; test: Aβ42 content in culture supernatant of HEK293APP/sw overexpression cells (ELISA, adjusted to total protein); assay type: cell-based; conditions: for Aβ42 content: secreted by APP/293 (HEK293APP/sw) cells, 400 μM, treated for 24 h, blank control 11.08
Description: (§1) (1) BCA protein concentration assay kit is purchased from Beyotime, Aβ40 and AB42 test kits are purchased from Wako Company. Except the fetal bovine serum (FBS) is purchased from Shanghai Pulong Biotechnology Research and Development Co. Ltd., the other related reagents are purchased from Gibico Company.
(§2) (2) HEK293APP/sw overexpression cell culture: cells are cultured in 48 microwell plate with DMEM culture solution (including 10% FBS, 100 μg/mL G418 (Geneticin) and penicillin and streptomycin), and a 4 mM stock in DMEM is diluted with DMEM to 400 μM and added to cell culture medium by 500 μL/well at 70% cell density and treated for 24 h.
(§3) (3) After the supernatant of culture solution is added to the BCA reagent at room temperature for 30 minutes, the absorption value of each well is measured at the OD 570 nm by the microplate reader and the total protein concentration is calculated according to the protein standard curve. Meanwhile, the concentration of Aβ40 and Aβ42 in the supernatant of culture solution is measured. Briefly, the supernatant is added to the 96 microwell plate coated by primary antibodies and incubated at 4° C. for overnight. Then the solution in the 96 microwell plate is removed and washed, and HRP (horseradish oxide enzyme) marked antibody is added to the solution and incubated at 4° C. for 2 hours. The antibody is removed and the plate is washed. After TMB substrate is added to each well at room temperature for 30 minutes, and the stop buffer is added to each well. The absorption value of each well is measured at the OD 450 nm by the microplate reader and the concentrations of Aβ40 and Aβ42 are calculated according to the standard curves of Aβ40 and Aβ42 respectively, and the final concentration is obtained by adjusting the concentrations of Aβ40 and Aβ42 according to the total protein concentration.

[2] = test system: Aβ40; test: Aβ40 content in culture supernatant of HEK293APP/sw overexpression cells (ELISA, adjusted to total protein); assay type: cell-based; conditions: for Aβ40 content: secreted by APP/293 (HEK293APP/sw) cells, 400 μM, treated for 24 h, blank control 127.81
Description: as §1, §2, §3

Compound | effect on the generation of Aβ42 peptides compared with blank control ([1]; APP/293 cells, in words) | Aβ42 content [1] [pmol/L] | effect on the generation of Aβ40 peptides compared with blank control ([2]; APP/293 cells, in words) | Aβ40 content [2] [pmol/L]
C/C(=C(\CCOP(=O)(O)O)SC(=O)c1ccccc1)N(C=O)Cc1cnc(C)nc1N [Comparative Example 2, S-[2-[[(4-amino-2-methyl-5-pyrimidinyl)methyl]formylamino]-1-[2-(phosphonooxy)ethyl]-1-propenyl]ester, reference compound] | good effect on reducing the generation | 5.04 | good effect on reducing the generation | 53.77
COc1cccc(C(=O)S/C(CCOP(=O)(O)O)=C(/C)N(C=O)Cc2cnc(C)nc2N)c1 [Example 1, (Z)-S-(2-(N-((4-amino-2-methylpyrimidin-5-yl)methyl)formamido)-5-(phosphonooxy)pent-2-en-3-yl)3-methoxybenzothioate] | – | 12.14 | – | 135.09
CCOc1ccc(C(=O)S/C(CCOP(=O)(O)O)=C(/C)N(C=O)Cc2cnc(C)nc2N)cc1 [Example 2, (Z)-S-(2-(N-((4-amino-2-methylpyrimidin-5-yl)methyl)formamido)-5-(phosphonooxy)pent-2-en-3-yl)4-ethoxybenzothioate] | – | 7.19 | – | 93.07
C/C(=C(\CCOP(=O)(O)O)SC(=O)c1ccc(O)cc1)N(C=O)Cc1cnc(C)nc1N [Example 3, (Z)-S-(2-(N-((4-amino-2-methylpyrimidin-5-yl)methyl)formamido)-5-(phosphonooxy)pent-2-en-3-yl)4-hydroxybenzothioate] | – | 10.79 | – | 121.48
C/C(=C(\CCOP(=O)(O)O)SC(=O)c1c(F)cccc1F)N(C=O)Cc1cnc(C)nc1N [Example 4, (Z)-S-(2-(N-((4-amino-2-methylpyrimidin-5-yl)methyl)formamido)-5-(phosphonooxy)pent-2-en-3-yl)2,6-difluorobenzothioate] | – | 8.86 | – | 133.25
C/C(=C(\CCOP(=O)(O)O)SC(=O)c1cccc(Br)c1)N(C=O)Cc1cnc(C)nc1N [Example 5, (Z)-S-(2-(N-((4-amino-2-methylpyrimidin-5-yl)methyl)formamido)-5-(phosphonooxy)pent-2-en-3-yl)3-bromobenzothioate] | – | 6.77 | – | 25.65
C/C(=C(\CCOP(=O)(O)O)SC(=O)c1cccc([N+](=O)[O-])c1)N(C=O)Cc1cnc(C)nc1N [Example 6, (Z)-S-(2-(N-((4-amino-2-methylpyrimidin-5-yl)methyl)formamido)-5-(phosphonooxy)pent-2-en-3-yl)3-nitrobenzothioate] | – | 3.31 | – | 81.05
C/C(=C(\CCOP(=O)(O)O)SC(=O)c1ccc(F)cc1)N(C=O)Cc1cnc(C)nc1N [Example 7, (Z)-S-(2-(N-((4-amino-2-methylpyrimidin-5-yl)methyl)formamido)-5-(phosphonooxy)pent-2-en-3-yl)4-fluorobenzothioate] | – | 13.08 | – | 152.06
C/C(=C(\CCOP(=O)(O)O)SC(=O)c1cccc(F)c1)N(C=O)Cc1cnc(C)nc1N [Example 8, (Z)-S-(2-(N-((4-amino-2-methylpyrimidin-5-yl)methyl)formamido)-5-(phosphonooxy)pent-2-en-3-yl)3-fluorobenzothioate] | – | 8.35 | – | 87.33
C/C(=C(\CCOP(=O)(O)O)SC(=O)c1ccccc1F)N(C=O)Cc1cnc(C)nc1N [Example 9, (Z)-S-(2-(N-((4-amino-2-methylpyrimidin-5-yl)methyl)formamido)-5-(phosphonooxy)pent-2-en-3-yl)2-fluorobenzothioate] | – | – | – | 15.00
C/C(=C(\CCOP(=O)(O)O)SC(=O)c1ccccc1C)N(C=O)Cc1cnc(C)nc1N [Example 10, (Z)-S-(2-(N-((4-amino-2-methylpyrimidin-5-yl)methyl)formamido)-5-(phosphonooxy)pent-2-en-3-yl)2-methylbenzothioate] | – | 9.78 | – | 112.32
C/C(=C(\CCOP(=O)(O)O)SC(=O)c1ccc([N+](=O)[O-])cc1)N(C=O)Cc1cnc(C)nc1N [Example 11, (Z)-S-(2-(N-((4-amino-2-methylpyrimidin-5-yl)methyl)formamido)-5-(phosphonooxy)pent-2-en-3-yl)4-nitrobenzothioate] | – | 5.21 | – | 60.98
COc1ccc(C(=O)S/C(CCOP(=O)(O)O)=C(/C)N(C=O)Cc2cnc(C)nc2N)cc1 [Example 12, (Z)-S-(2-(N-((4-amino-2-methylpyrimidin-5-yl)methyl)formamido)-5-(phosphonooxy)pent-2-en-3-yl)4-methoxybenzothioate] | – | 3.92 | – | 41.60
C/C(=C(\CCOP(=O)(O)O)SC(=O)c1cccc(Cl)c1)N(C=O)Cc1cnc(C)nc1N [Example 13, (Z)-S-(2-(N-((4-amino-2-methylpyrimidin-5-yl)methyl)formamido)-5-(phosphonooxy)pent-2-en-3-yl)3-chlorobenzothioate] | – | 6.37 | – | 69.35
C/C(=C(\CCOP(=O)(O)O)SC(=O)c1cccc(C)c1)N(C=O)Cc1cnc(C)nc1N [Example 14, (Z)-S-(2-(N-((4-amino-2-methylpyrimidin-5-yl)methyl)formamido)-5-(phosphonooxy)pent-2-en-3-yl)3-methylbenzothioate] | – | 6.41 | – | 97.97
C/C(=C(\CCOP(=O)(O)O)SC(=O)c1ccc(Cl)cc1)N(C=O)Cc1cnc(C)nc1N [Example 15, (Z)-S-(2-(N-((4-amino-2-methylpyrimidin-5-yl)methyl)formamido)-5-(phosphonooxy)pent-2-en-3-yl)4-chlorobenzothioate] | – | 7.16 | – | 60.27
CCOc1ccccc1C(=O)S/C(CCOP(=O)(O)O)=C(/C)N(C=O)Cc1cnc(C)nc1N [Example 16] | – | 5.93 | – | 42.76
C/C(=C(\CCOP(=O)(O)O)SC(=O)c1ccc(Br)cc1)N(C=O)Cc1cnc(C)nc1N [Example 17, (Z)-S-(2-(N-((4-amino-2-methylpyrimidin-5-yl)methyl)formamido)-5-(phosphonooxy)pent-2-en-3-yl)4-bromobenzothioate] | – | 8.89 | – | 112.53
C=Cc1cccc(C(=O)S/C(CCOP(=O)(O)O)=C(/C)N(C=O)Cc2cnc(C)nc2N)c1 [Example 20, (Z)-S-(2-(N-((4-amino-2-methylpyrimidin-5-yl)methyl)formamido)-5-(phosphonooxy)pent-2-en-3-yl)3-vinylbenzothioate] | – | 10.33 | – | 117.16
C=Cc1ccc(C(=O)S/C(CCOP(=O)(O)O)=C(/C)N(C=O)Cc2cnc(C)nc2N)cc1 [Example 21, (Z)-S-(2-(N-((4-amino-2-methylpyrimidin-5-yl)methyl)formamido)-5-(phosphonooxy)pent-2-en-3-yl)4-vinylbenzothioate] | – | 11.24 | – | 127.41
C/C(=C(\CCOP(=O)(O)O)SC(=O)c1ccccc1[N+](=O)[O-])N(C=O)Cc1cnc(C)nc1N [Example 22, (Z)-S-(2-(N-((4-amino-2-methylpyrimidin-5-yl)methyl)formamido)-5-(phosphonooxy)pent-2-en-3-yl)2-nitrobenzothioate] | – | 11.31 | – | 127.81
C/C(=C(\CCOP(=O)(O)O)SC(=O)c1c(C)cccc1C)N(C=O)Cc1cnc(C)nc1N [Example 23, (Z)-S-(2-(N-((4-amino-2-methylpyrimidin-5-yl)methyl)formamido)-5-(phosphonooxy)pent-2-en-3-yl)2,6-dimethylbenzothioate] | – | 12.64 | – | 143.18
(Z)-S-(2-(N-((4-amino-2-methylpyrimidin-5-yl)methyl)formamido)-5-(phosphonooxy)pent-2-en-3-yl)2-bromobenzothioate [Example 18] | – | 2.60 | – | 21.19
(Z)-S-(2-(N-((4-amino-2-methylpyrimidin-5-yl)methyl)formamido)-5-(phosphonooxy)pent-2-en-3-yl)2-iodobenzothioate [Example 19] | – | 5.50 | – | 62.74
